From patent publication US12686690B2, “Macrocyclic urea orexin receptor agonists” (Merck Sharp & Dohme LLC, priority 2020, dated 2026) come the findings set out here.

A word on the EC50: it is the concentration that produces a half-maximal response.

This test has as its target T1, hOX2R (Homo sapiens, UniProt O43614).
T1 construct: expressed in transfected cells; host or cells: CHO cells (G418 selection)
T1 sequence (O43614 1-444): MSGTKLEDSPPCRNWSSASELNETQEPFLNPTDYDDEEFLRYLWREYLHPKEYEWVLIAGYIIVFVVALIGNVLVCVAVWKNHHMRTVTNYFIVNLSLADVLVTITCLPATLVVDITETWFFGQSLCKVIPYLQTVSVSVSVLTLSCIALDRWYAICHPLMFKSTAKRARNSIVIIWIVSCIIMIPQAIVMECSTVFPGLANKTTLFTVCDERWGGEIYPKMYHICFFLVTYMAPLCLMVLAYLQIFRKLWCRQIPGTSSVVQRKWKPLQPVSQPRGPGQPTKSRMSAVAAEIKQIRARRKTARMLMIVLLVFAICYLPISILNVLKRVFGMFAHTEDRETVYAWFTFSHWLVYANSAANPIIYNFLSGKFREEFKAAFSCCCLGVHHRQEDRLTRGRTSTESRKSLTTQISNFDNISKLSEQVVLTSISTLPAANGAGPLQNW
Description: hOX2R IPone assay (orexin receptor agonism). The test is classed as cell-based. The note with it: IPone readout; for hOX2R_Ipone max %act: maximal activation; for EC50: orexin receptor agonist, read-out: hOX2R_IPone EC50.

Each structure is given as a SMILES string.

As to `CCN1C(=O)N[C@@H](CCC(F)(F)F)CCCCCOc2nc(cn3ccnc23)-c2cc(cc(C)n2)[C@@H]1C` [Example 118A, (12S,16R)-13-ethyl-9,12-dimethyl-16-(3,3,3-trifluoropropyl)-12,13,16,17,18,19,20,21-octahydro-6,23-(azeno)-11,7-(metheno)imidazo[2,1-c][1,4,8,13,15]oxatetraazacyclohenicosin-14(15H)-one], the hOX2R_Ipone max %act came to 99.08% and the EC50 was 183 nM.

`CCN1C(=O)NCCCCCCCOc2nc(cn3ccnc23)-c2cc(ncc2OC)[C@H]1C` [Example 177, (R,E)-4-ethyl-25-methoxy-3-methyl-14-oxa-4,6-diaza-1(6,8)-imidazo[1,2-a]pyrazina-2(4,2)-pyridinacyclo-tetradecaphan-5-one]: the hOX2R_Ipone max %act is listed as 100.5% and the EC50 came to 62.5 nM.

Consider `CCN1C(=O)NC(CC(O)C(F)(F)F)CCCCCOc2cn3ncnc3c(n2)-c2cc(ncc2OC)C1C` [Example 131, (3R,7R,E)-4-ethyl-25-methoxy-3-methyl-7-((S)-3,3,3-trifluoro-2-hydroxypropyl)-13-oxa-4,6-diaza-1(6,8)-[1,2,4]triazolo[1,5-a]pyrazina-2(4,2)-pyridinacyclotridecaphan-5-one], for which the hOX2R_Ipone max %act came to 102.2% and the concentration for a half-maximal effect (EC50) was found to be 0.77 nM.

Turning to `CCN1C(=O)NC(C)CCCCCOc2nc(cn3ccnc23)-c2cccc(c2)[C@H]1C` (mixture of isomers) [Example 18, (12R)-13-ethyl-12,16-dimethyl-12,13,16,17,18,19, 20,21-octahydro-6,23-(azeno)-11,7-(metheno) imidazo[2,1-c][1,4,13,15]oxatriaza-cyclohenicosin-14(15H)-one], the hOX2R_Ipone max %act is given as 98.6% and the EC50 worked out at 26.6 nM.

Regarding `CCN1C(=O)NCCC2CCC(C2)Oc2nc(cn3ccnc23)-c2cccc(c2)[C@H]1C` (single isomer, unassigned) [Example 1A], the hOX2R_Ipone max %act is given as 92.5% and the EC50 was determined as 1050 nM.

Consider `CCN1C(=O)N[C@@H](CCC(F)(F)F)CCCCOc2nc(cn3ncnc23)-c2cc(ncc2OC)C1C(F)(F)F` (single isomer, unassigned) [Example 34A], for which the hOX2R_Ipone max %act is 99.9% and the half-maximal effective concentration (EC50) came out at 541 nM.

As for `CCN1C(=O)NC(CCC(F)(F)F)C(C)CCCOc2nc(cn3ccnc23)-c2cccc(c2)[C@H]1C` (single isomer, unassigned) [Example 42D], the hOX2R_Ipone max %act came out at 98.8% and the EC50 came to 3.6 nM.

Take `CCN1C(=O)NC(CCCOC)CCCCCOc2nc(cn3ccnc23)-c2cc(ncc2OC)[C@H]1C` (single isomer, unassigned) [Example 60B]: the hOX2R_Ipone max %act amounted to 100.9% and the EC50 turned out to be 2.2 nM.

As to `CCN1C(=O)N[C@@H](CCC(F)(F)F)CCCCCOc2nc(cn3ccnc23)C2=NC=C(O2)C1C` (single isomer, unassigned) [Example 104A], the hOX2R_Ipone max %act worked out at 60.9% and the EC50 worked out at 4910 nM.

With `CCN1C(=O)NC(c2cscn2)CCCCCOc2nc(cn3ccnc23)-c2cccc(c2)[C@H]1C` (single isomer, unassigned) [Example 19B], the hOX2R_Ipone max %act worked out at 94.4% and the EC50 turned out to be 6.6 nM.

With `CCN1C(=O)N[C@@H](CCC(F)(F)F)CCCCCOc2nc(cn3ccnc23)-c2cc(ccn2)[C@@H]1C` [Example 113A, (12S,16R)-13-ethyl-12-methyl-16-(3,3,3-trifluoropropyl)-12,13,16,17,18,19,20,21-octahydro-6,23-(azeno)-11,7-(metheno)imidazo[2,1-c][1,4,8,13,15]oxatetraazacyclohenicosin-14(15H)-one], the hOX2R_Ipone max %act worked out at 98.1% and the EC50 was determined as 105 nM.

Take `CCN1C(=O)N[C@@H](CCC(F)(F)F)CCCCCOc2cc(cn3ccnc23)-c2nc(ccc2OC)[C@H]1C` [Example 50, (3R,7R,E)-4-ethyl-23-methoxy-3-methyl-7-(3,3,3-trifluoropropyl)-13-oxa-4,6-diaza-1(6,8)-imidazo[1,2-a]pyridina-2(2,6)-pyridinacyclotridecaphan-5-one]: the hOX2R_Ipone max %act was found to be 98.7% and the EC50 came to 0.8 nM.

`CCN1C(=O)N[C@@H](C(F)(F)F)CCCCCOc2nc(cn3ccnc23)-c2cc(ncc2OC)[C@H]1C` [Example 77, (12R,16R)-13-ethyl-8-methoxy-12-methyl-16-(trifluoromethyl)-12,13,16,17,18,19,20, 21-octahydro-6,23-(azeno)-11,7-(metheno)imidazo[2,1-c][1,4,10,13,15]oxatet-raazacyclohenicosin-14(15H)-one]: the hOX2R_Ipone max %act is 101.7% and the EC50 was 20.9 nM.

For `CCN1C(=O)NC(C(O)CC(F)(F)F)CCCCCOc2cn3ncnc3c(n2)-c2cc(ncc2OC)C1C` [Example 132, (3R,7R,E)-4-ethyl-25-methoxy-3-methyl-7-((R)-3,3,3-trifluoro-1-hydroxypropyl)-13-oxa-4,6-diaza-1(6,8)-[1,2,4]triazolo[1,5-a]pyrazina-2(4,2)-pyridinacyclotridecaphan-5-one], the hOX2R_Ipone max %act is given as 102.9% and the EC50 came to 4.98 nM.

In the case of `CCN1C(=O)N[C@@H](CCC(F)(F)F)CCCCCOc2nc(cn3ccnc23)-c2cc(c(C)cn2)C1C` (single isomer, unassigned) [Example 92A], the hOX2R_Ipone max %act came out at 67.1% and the EC50 turned out to be 10100 nM.

With `CCN1C(=O)NC(C(O)CC(F)(F)F)CCCCCOc2nc(cn3ncnc23)-c2cc(ncc2OC)C1C` (single isomer, unassigned) [Example 133], the hOX2R_Ipone max %act worked out at 102.1% and the half-maximal effective concentration (EC50) was determined as 4.75 nM.

As for `CCN1C(=O)NC(CCC(F)(F)F)C(C)CCCOc2nc(cn3ccnc23)-c2cccc(c2)[C@H]1C` (single isomer, unassigned) [Example 42C], the hOX2R_Ipone max %act was 99.7% and the EC50 was 8.6 nM.

Take `CCN1C(=O)N[C@@H](CF)CCCCCOc2nc(cn3ccnc23)-c2cc(ncc2OC)[C@H]1C` [Example 126, (3R,7R,E)-4-ethyl-7-(fluoromethyl)-25-methoxy-3-methyl-13-oxa-4,6-diaza-1(6,8)-imidazo[1,2-a]pyrazina-2(4,2)-pyridinacyclotridecaphan-5-one]: the hOX2R_Ipone max %act was 96.84% and the EC50 was determined as 9.38 nM.

As to `CCN1C(=O)N[C@@H](c2nccnc2C)CCCCCOc2nc(cn3ccnc23)-c2cc(ncc2OC)[C@H]1C` [Example 152, (3R,7R,E)-4-ethyl-25-methoxy-3-methyl-7-(3-methylpyrazin-2-yl)-13-oxa-4,6-diaza-1(6,8)-imidazo[1,2-a]pyrazina-2(4,2)-pyridinacyclotridecaphan-5-one], the hOX2R_Ipone max %act is 106.5% and the EC50 was determined as 4.17 nM.

Regarding `CCN1C(=O)N[C@@H](CCC(F)(F)F)CCCCCOc2nc(cn3ccnc23)-c2nc(ncc2OC)[C@@H]1C` [Example 117A, (12S,16R)-13-ethyl-8-methoxy-12-methyl-16-(3,3,3-trifluoropropyl)-12,13,16,17,18,19,20,21-octahydro-6,23:11,7-di(azeno)imidazo[2,1-c][1,4,10,13,15]oxatetraazacyclohenicosin-14(15H)-one], the hOX2R_Ipone max %act turned out to be 101.7% and the EC50 amounted to 26 nM.

With `CCC(CC)CC1CCCCCOc2nc(cn3ccnc23)-c2cc(ncc2OC)[C@@H](C)N(CC)C(=O)N1` (single isomer, unassigned) [Example 64A], the hOX2R_Ipone max %act was 102.7% and the EC50 came out at 3.5 nM.

Regarding `CCN1C(=O)NC(CCC(F)(F)F)CCC(F)(F)CCOc2nc(cn3ccnc23)-c2cc(ncc2OC)[C@H]1C` (single isomer, unassigned) [Example 121A], the hOX2R_Ipone max %act is 100.4% and the EC50 was determined as 9.8 nM.

With `CCN1C(=O)N[C@@H](C(F)(F)F)CCCCOc2nc(cn3ccnc23)-c2cc(ncc2OC)C1C(F)(F)F` (single isomer, unassigned) [Example 39A], the hOX2R_Ipone max %act is given as 97.7% and the EC50 amounted to 60.5 nM.

On to `CCN1Cc2cccc(c2)-c2cn3ccnc3c(n2)OCCCC[C@H](CCC(F)(F)F)NC1=O` [Example 43, (16R)-13-ethyl-16-(3,3,3-trifluoropropyl)-12,13,15,16,17,18,19,20-octahydro-14H-6,22-(azeno)-11,7-(metheno)imidazo[2,1-c][1,4,13,15]oxatriaza-cycloicosin-14-one], for which the hOX2R_Ipone max %act was 97.6% and the EC50 was found to be 49.9 nM.

Take `CCN1C(=O)N[C@@H](CCC(F)(F)F)CCCCCOc2nc(cn3ccnc23)-c2nc(ncc2OC)[C@H]1C` [Example 117B, (12R,16R)-13-ethyl-8-methoxy-12-methyl-16-(3,3,3-trifluoropropyl)-12,13,16,17,18,19,20,21-octahydro-6,23:11,7-di(azeno)imidazo[2,1-c][1,4,10,13,15]oxatetraazacyclohenicosin-14(15H)-one]: the hOX2R_Ipone max %act is on record as 101.9% and the EC50 was 1.5 nM.

`CCN1C(=O)NC(c2ccon2)CCCCCOc2nc(cn3ccnc23)-c2cccc(c2)[C@H]1C` (mixture of isomers) [Example 20, (12R)-13-ethyl-12-methyl-16-(1,2-oxazol-3-yl)-12,13,16,17,18,19, 20,21-octahydro-6,23-(azeno)-11,7-(metheno) imidazo[2,1-c][1,4,13,15]oxa-triazacyclohenicosin-14(15H)-one]: the hOX2R_Ipone max %act is on record as 98.31% and the EC50 turned out to be 9.5 nM.
